Assays:
[1] = target: T1, CYP2D6 (Homo sapiens, UniProt P10635); assay: Cytochrome P450 inhibition assay (P450-Glo); assay type: in vitro ADME; settings: 10 μM, result in words
T1 construct: purchased Corning; host or cells: baculovirus infected insect cells (BTI-TN-5B1-4)
Procedure: (§1) Cytotoxicity was also determined against 786-O and A549 cells.
(§2) Experiments for determining pre-clinical in vitro ADME-Tox activities were performed as described by Moraes et al. and also described in the following sections 4.3.2.1 to 4.3.2.4.
(§3) The luminescence based P450-Glo™ (Promega Corp.) assay was used in 384-well assay format.
(§4) The cytochrome P450 (CYP) panel included microsomal preparations of cytochromes P450 1A2, 2C9, 2C19, 2D6, and 3A4 (Corning) from baculovirus infected insect cells (BTI-TN-5B1−4) which express cytochromes P450 and cytochrome c reductase (and cytochrome b5 for 3A4). Compounds were added (100 nL/well in 1% DMSO v/v) using the Echo 550® Liquid Handler followed by addition of 5 μL/well of CYP450/substrate mixture. Following incubation for 30 min at 37 °C, the reaction was initiated by the addition of 5 μL/well of the NADPH regeneration mixture. By the end of a further 30 min incubation (37 °C), the CYP450 reaction was stopped and the luciferase reaction was initiated by the addition of 10 μL/well of the luciferin detection reagent, followed by an additional 30 min of incubation at 37 °C. The luminescence signal was detected using an Infinite® M1000 PRO plate reader. […] The raw data were normalised relative to the positive and negative controls yielding the % inhibition for each compound.

[2] = target: T2, CYP3A4 (Homo sapiens, UniProt P08684); assay: Cytochrome P450 inhibition assay (P450-Glo); assay type: in vitro ADME; settings: 10 μM, result in words
T2 construct: purchased Corning; host or cells: baculovirus infected insect cells (BTI-TN-5B1-4)
Procedure: as §1, §2, §3, §4

T2 sequence (P08684 2-503 limits assumed): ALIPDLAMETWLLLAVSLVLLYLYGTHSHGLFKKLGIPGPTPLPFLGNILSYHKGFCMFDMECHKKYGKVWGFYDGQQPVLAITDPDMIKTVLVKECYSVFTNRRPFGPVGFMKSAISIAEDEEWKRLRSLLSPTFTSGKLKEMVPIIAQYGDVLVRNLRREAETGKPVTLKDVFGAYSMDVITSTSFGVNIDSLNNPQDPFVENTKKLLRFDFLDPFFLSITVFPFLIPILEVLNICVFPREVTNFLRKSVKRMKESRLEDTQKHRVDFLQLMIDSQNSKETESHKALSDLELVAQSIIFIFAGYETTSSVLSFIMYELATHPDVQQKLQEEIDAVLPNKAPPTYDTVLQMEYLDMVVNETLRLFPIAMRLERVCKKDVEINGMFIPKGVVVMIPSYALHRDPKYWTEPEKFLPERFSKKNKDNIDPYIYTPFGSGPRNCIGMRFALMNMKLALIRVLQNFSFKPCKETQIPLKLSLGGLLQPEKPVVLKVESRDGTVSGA
T1 sequence (P10635 whole entry): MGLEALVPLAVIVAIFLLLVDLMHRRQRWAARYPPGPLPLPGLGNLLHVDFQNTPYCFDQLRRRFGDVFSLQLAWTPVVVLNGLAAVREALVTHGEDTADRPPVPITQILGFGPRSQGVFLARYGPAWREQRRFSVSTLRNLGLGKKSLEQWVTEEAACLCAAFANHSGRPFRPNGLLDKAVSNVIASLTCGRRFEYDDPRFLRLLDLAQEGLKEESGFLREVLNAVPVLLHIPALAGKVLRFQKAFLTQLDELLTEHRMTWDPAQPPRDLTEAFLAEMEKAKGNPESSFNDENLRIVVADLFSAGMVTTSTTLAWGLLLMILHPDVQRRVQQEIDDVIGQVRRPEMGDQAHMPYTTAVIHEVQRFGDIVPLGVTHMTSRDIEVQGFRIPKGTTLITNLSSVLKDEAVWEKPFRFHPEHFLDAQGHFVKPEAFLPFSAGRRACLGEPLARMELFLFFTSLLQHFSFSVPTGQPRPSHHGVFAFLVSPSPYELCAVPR

COc1ccccc1-c1cc(-c2cccnc2)nc(N)n1 [Compound 13, 4-(2-Methoxyphenyl)-6-(pyridin-3-yl)pyrimidin-2-amine]
CYP2D6 inhibition [1]: favourable results
CYP3A4 inhibition [2]: favourable results

— paper PMC7762786, “The discovery of novel antitrypanosomal 4-phenyl-6-(pyridin-3-yl)pyrimidines” (European Journal of Medicinal Chemistry, 2021)
